Data on eleven compounds can be found in ChEMBL document CHEMBL1201862, “PubChem BioAssay data set” (2004).

Some test systems named below: ACHN; BT-549; CAKI-1; HL-60; IGROV-1; M14; MDA-N; MOLT-4; NCI/ADR-RES; OVCAR-3; OVCAR-8; PC-3; RXF 393; SF-539; SK-MEL-2; SN12C; SNB-75; SW-620; UACC-257; HCC 2998.
Experiment in all cases: NCI tumour cell line growth inhibition, 48 h

SMILES strings stand for the structures.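 Values below derive from 48-hour exposures of cells grown in 96-well plates, with endpoints linearly interpolated between the two concentrations bracketing the appropriate inhibition level. Here, GI50 denotes the concentration required for 50% inhibition of growth.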 Calls of active or inactive are those of the source. No stated cut-off is given here; in the data, active = GI50 up to about 1.1 µM and inactive = higher. Some results are limits rather than exact numbers.

`COc1ccccc1C[C@@H]1OC2(C=CC(=O)CC2SC(=O)c2ccccc2)O[C@H]1Cc1ccccc1OC` (some centres not stated): the GI50 in the assay with ACHN was 1.51 µM (inactive); in the assay with BT-549 it was 0.318 µM (active); in the assay with CAKI-1 it was 1.79 µM (inactive); with HL-60 it was 1.16 µM (inactive); in the assay with IGROV-1 it was 1.42 µM (inactive); in the assay on M14 it was 1.56 µM (inactive). Also, the GI50 is 1.51 µM (inactive) in the assay on MDA-N; 0.449 µM (active) with MOLT-4; 1.46 µM (inactive) in the assay on NCI/ADR-RES; 1.59 µM (inactive) in the assay on OVCAR-3; 0.216 µM (active) in the assay with OVCAR-8; 1.88 µM (inactive) in the assay with PC-3. In addition, the GI50 was 0.121 µM (active) in the assay with RXF 393; 1.67 µM (inactive) in the assay on SF-539; 1.71 µM (inactive) in the assay on SK-MEL-2; 2.52 µM (inactive) with SN12C; 1.78 µM (inactive) in the assay with SNB-75; 0.324 µM (active) in the assay on SW-620. Moreover, in the assay on UACC-257, the GI50 was 1.51 µM (inactive).
Turning to `O=C1/C(=C2\SCC(=O)N2c2ccccc2)SC(=S)N1c1ccccc1`, the GI50 is 26.2 µM (inactive) in the assay with ACHN; 2.82 µM (inactive) in the assay on BT-549; 21.1 µM (inactive) in the assay with CAKI-1; 28.2 µM (inactive) in the assay on HCC 2998; 78.5 µM (inactive) in the assay on HL-60; 17.1 µM (inactive) with IGROV-1. Besides, the GI50 is > 100 µM (inactive) in the assay on M14; 44.2 µM (inactive) with MDA-N; 17.7 µM (inactive) with MOLT-4; 27 µM (inactive) with NCI/ADR-RES; 27.8 µM (inactive) in the assay with OVCAR-3; 41.4 µM (inactive) with OVCAR-8. Besides, the GI50 is 28.6 µM (inactive) in the assay on PC-3; 34.4 µM (inactive) in the assay on RXF 393; 26.4 µM (inactive) in the assay with SF-539; 27.3 µM (inactive) with SK-MEL-2; 25.6 µM (inactive) in the assay with SN12C; 45.1 µM (inactive) in the assay with SW-620. Moreover, the GI50 in the assay on UACC-257 was 42.8 µM (inactive).
As for `OC1(c2ccc(Cl)cc2)c2ccc(CN3CCCC3)cc2C2=NCCN21` (configuration not stated), the GI50 with ACHN is 16.7 µM (inactive); in the assay with BT-549 it was 8.77 µM (inactive); in the assay with CAKI-1 it was 16.4 µM (inactive); in the assay with HL-60, 12.6 µM (inactive); in the assay on IGROV-1, 14.5 µM (inactive); with M14 it was 3.66 µM (inactive). In addition, the GI50 is 10.8 µM (inactive) in the assay with MDA-N; 11.6 µM (inactive) in the assay with MOLT-4; > 100 µM (inactive) in the assay on NCI/ADR-RES; 16.1 µM (inactive) with OVCAR-3; 15.4 µM (inactive) in the assay on OVCAR-8; 13.3 µM (inactive) with PC-3. Moreover, the GI50 in the assay on RXF 393 is 8.26 µM (inactive); in the assay with SF-539 it was 13.2 µM (inactive); in the assay with SK-MEL-2, 19 µM (inactive); with SN12C, 16.4 µM (inactive); in the assay on SNB-75, 3.16 µM (inactive); in the assay with SW-620, 13.3 µM (inactive). In the assay on UACC-257, the GI50 was 12.5 µM (inactive).
Regarding `Clc1ccc(CCN[C@H]2CCCC[C@H]2N2CCCC2)cc1Cl`, the GI50 with ACHN is 38.6 µM (inactive); with BT-549, 26.2 µM (inactive); with CAKI-1, 27.4 µM (inactive); in the assay with HCC 2998 it was 8.24 µM (inactive); in the assay on HL-60, 20.1 µM (inactive); in the assay on IGROV-1, 16.8 µM (inactive). Further, the GI50 with M14 was 15.3 µM (inactive); with MDA-N, 16.2 µM (inactive); with MOLT-4, 24.4 µM (inactive); in the assay on NCI/ADR-RES, 21.4 µM (inactive); in the assay on OVCAR-3, 19.6 µM (inactive); in the assay with OVCAR-8, 26.3 µM (inactive). For the same compound, the GI50 is 27.9 µM (inactive) in the assay with PC-3; 28.4 µM (inactive) in the assay with SF-539; 20.8 µM (inactive) with SK-MEL-2; 20.2 µM (inactive) in the assay on SN12C; 34 µM (inactive) in the assay with SW-620; 12 µM (inactive) in the assay on UACC-257.
`Cc1ccsc1/C=N/Nc1cc(C)c2cccc(C)c2n1`: the GI50 in the assay on ACHN is > 100 µM (inactive); in the assay with BT-549, > 100 µM (inactive); with CAKI-1, > 100 µM (inactive); in the assay on HCC 2998, > 100 µM (inactive); in the assay on HL-60, 3.78 µM (inactive); in the assay on IGROV-1 it was 1.6 µM (inactive). In addition, the GI50 in the assay with M14 was > 100 µM (inactive); in the assay with MDA-N, > 100 µM (inactive); in the assay with NCI/ADR-RES it was > 100 µM (inactive); in the assay on OVCAR-3 it was > 100 µM (inactive); with OVCAR-8 it was > 100 µM (inactive); in the assay on PC-3, 4.89 µM (inactive). For the same compound, the GI50 in the assay on SK-MEL-2, with SN12C, in the assay with SNB-75, with SW-620 and in the assay with UACC-257 was > 100 µM (inactive) throughout.
With `NS(=O)(=O)c1cc(S(N)(=O)=O)c(NC(=O)N(c2ccccc2)c2ccccc2)c(Cl)c1Cl`, the GI50 was 23.2 µM (inactive) in the assay on ACHN; 15.9 µM (inactive) with BT-549; 21.4 µM (inactive) in the assay with CAKI-1; 19.2 µM (inactive) with HCC 2998; 24.8 µM (inactive) in the assay on HL-60; 8.13 µM (inactive) in the assay with IGROV-1. The GI50 with M14 is 15.7 µM (inactive); in the assay on MDA-N, 24.7 µM (inactive); in the assay on MOLT-4, 12.4 µM (inactive); in the assay with NCI/ADR-RES, 19 µM (inactive); with OVCAR-3, 18.5 µM (inactive); in the assay with OVCAR-8 it was 13.2 µM (inactive). The GI50 in the assay with PC-3 is 24 µM (inactive); with SK-MEL-2 it was 22.6 µM (inactive); in the assay with SN12C, 19.5 µM (inactive); in the assay on SW-620, 29.9 µM (inactive); in the assay on UACC-257, 10.4 µM (inactive).
Regarding `CN(C)CCNC(=O)c1cccc2c(NCCN(C)C)c3ccccc3nc12`, the GI50 with ACHN is 1.76 µM (inactive); in the assay on BT-549, 7.59 µM (inactive); in the assay with CAKI-1, 2.69 µM (inactive); in the assay with HCC 2998, 1.91 µM (inactive); in the assay on IGROV-1 it was 2.68 µM (inactive); with M14, 7.1 µM (inactive). The GI50 was 3.15 µM (inactive) with MDA-N; 1 µM (active) with MOLT-4; 7.78 µM (inactive) in the assay on NCI/ADR-RES; 2.39 µM (inactive) in the assay with OVCAR-3; 3.19 µM (inactive) in the assay on OVCAR-8; 2.42 µM (inactive) with PC-3. Further, the GI50 with RXF 393 is 3.6 µM (inactive); in the assay with SF-539, 3.05 µM (inactive); with SK-MEL-2, 5.28 µM (inactive); in the assay on SN12C, 1.73 µM (inactive); in the assay on SNB-75 it was 5.06 µM (inactive); in the assay on SW-620, 2.33 µM (inactive). Further, the GI50 with UACC-257 was 5.14 µM (inactive).
For the compound `COc1ccccc1NCc1cccc2c(=O)c3ccc(Cl)cc3oc12`, the GI50 was > 100 µM (inactive) in the assay with ACHN; > 100 µM (inactive) in the assay with BT-549; > 100 µM (inactive) in the assay on CAKI-1; > 100 µM (inactive) in the assay on HCC 2998; 22.9 µM (inactive) in the assay with HL-60; 56 µM (inactive) with IGROV-1. Further, the GI50 is > 100 µM (inactive) in the assay with M14; 93.8 µM (inactive) in the assay on MDA-N; > 100 µM (inactive) in the assay on MOLT-4; > 100 µM (inactive) in the assay on NCI/ADR-RES; 35.8 µM (inactive) in the assay on OVCAR-3; > 100 µM (inactive) in the assay on OVCAR-8. In addition, the GI50 in the assay with PC-3 was 58.7 µM (inactive); in the assay on SF-539 it was 65.2 µM (inactive); in the assay with SK-MEL-2, 49.1 µM (inactive); in the assay with SN12C it was > 100 µM (inactive); in the assay on SNB-75 it was 28 µM (inactive); in the assay with SW-620, 76.9 µM (inactive). Besides, the GI50 in the assay with UACC-257 was 60.5 µM (inactive).
Turning to `c1c[nH]c(-c2ccc(-c3ccc[nH]3)c3nsnc23)c1`, the GI50 was > 52.6 µM (inactive) in the assay with ACHN; 27 µM (inactive) in the assay on BT-549; > 66.7 µM (inactive) in the assay with CAKI-1; 0.456 µM (active) with HCC 2998; 73.8 µM (inactive) in the assay on HL-60; 20.3 µM (inactive) in the assay on IGROV-1. In addition, the GI50 is > 46.9 µM (inactive) in the assay on M14; > 70.1 µM (inactive) in the assay on MDA-N; > 30.3 µM (inactive) in the assay with MOLT-4; > 51.6 µM (inactive) in the assay with NCI/ADR-RES; 11.3 µM (inactive) in the assay with OVCAR-3; > 43.7 µM (inactive) in the assay with OVCAR-8. Also, the GI50 in the assay on PC-3 is > 41.1 µM (inactive); in the assay on SF-539 it was > 56.9 µM (inactive); with SK-MEL-2, 44.3 µM (inactive); in the assay with SN12C, > 54.5 µM (inactive); with SNB-75 it was 2.65 µM (inactive); with SW-620 it was > 52.4 µM (inactive). For the same compound, the GI50 in the assay with UACC-257 was > 61 µM (inactive).
Take `O=C(O[C@H](/C=C/c1ccccc1)P1(=O)N(Cc2ccccc2)[C@@H]2CCCC[C@H]2N1Cc1ccccc1)c1ccccc1`: the GI50 in the assay with ACHN is 3.94 µM (inactive); in the assay on BT-549 it was 4.55 µM (inactive); in the assay with CAKI-1, 2.16 µM (inactive); in the assay with HCC 2998 it was 5.9 µM (inactive); in the assay on HL-60, 3.66 µM (inactive); in the assay on IGROV-1, 3.37 µM (inactive). The GI50 with M14 is 4.11 µM (inactive); with MDA-N, 3.68 µM (inactive); in the assay with NCI/ADR-RES, 3.18 µM (inactive); with OVCAR-3, 3.68 µM (inactive); in the assay with OVCAR-8 it was 3.95 µM (inactive); with PC-3, 3.39 µM (inactive). In addition, the GI50 in the assay with SF-539 was 2.98 µM (inactive); in the assay with SK-MEL-2, 2.27 µM (inactive); in the assay with SN12C, 3.07 µM (inactive); in the assay with SW-620, 3.57 µM (inactive); with UACC-257, 7.87 µM (inactive).
Regarding `CC1(C)CC(=O)C(C(c2cccc(O)c2O)C2C(=O)CC(C)(C)CC2=O)C(=O)C1`, the GI50 in the assay with ACHN is > 100 µM (inactive); in the assay on BT-549, > 100 µM (inactive); with CAKI-1, > 100 µM (inactive); in the assay on HL-60, < 0.01 µM (active); in the assay on IGROV-1 it was 43.9 µM (inactive); with M14 it was > 100 µM (inactive). For the same compound, the GI50 in the assay on MDA-N was > 100 µM (inactive); in the assay with MOLT-4 it was 30.3 µM (inactive); with NCI/ADR-RES, > 100 µM (inactive); with OVCAR-3, 97.7 µM (inactive); in the assay with OVCAR-8, 81.7 µM (inactive); in the assay with PC-3, > 100 µM (inactive). In addition, the GI50 in the assay with RXF 393 was > 100 µM (inactive); with SF-539 it was > 100 µM (inactive); with SK-MEL-2, 76.6 µM (inactive); in the assay on SN12C, > 100 µM (inactive); in the assay on SNB-75, > 100 µM (inactive); with SW-620, > 100 µM (inactive). Also, the GI50 in the assay with UACC-257 is > 100 µM (inactive).
